Data as given in patent publication US20220193439A1, “TREATMENTS FOR EYE INFECTION” (priority 2020, published 2022).
Values joined by “and” are separate entries in the source; they are usually repeats but may differ in a detail not shown here. Equal entries are not always repeated.

Experiments:
Assay type in all cases: cell-based
Pseudomonas aeruginosa [1] = assay: riboflavin/UVA laser treatment under normoxic conditions, CFU counting (procedure 2210); details: UVA laser
Experimental: According to an example procedure 2210 shown in FIG. 22A, a dilution factor is determined for Pseudomonas aeruginosa bacteria in step 2210a, and the Pseudomonas aeruginosa is loaded into wells in cell culture plate (e.g., a 96-well plate) in step 2210b. […] In particular, a laser beam of ultraviolet A (UVA) light can be applied with a size of approximately 6.5 mm at 8 Hz. A petri dish is inoculated with the mixture from the wells in step 2210e and incubated (e.g., overnight) in step 2210f. After incubation, the effect of the particular treatment parameters is evaluated by counting colony forming units (CFU) in step 2210g.

Pseudomonas aeruginosa [2] = assay: riboflavin/UVA LED treatment under normoxic conditions, CFU counting (procedure 2230); details: 0.1% riboflavin, UVA LED
Experimental: According to an example procedure 2230 shown in FIG. 23C, a dilution factor is determined for Pseudomonas aeruginosa bacteria in step 2230a, and the Pseudomonas aeruginosa is loaded into wells in cell culture plate (e.g., a 96-well plate) in step 2230b. […] For example, the LED light source may emit UVA light at a size of approximately 6.5 mm. A petri dish is inoculated with the mixture from the wells in step 2230e, and the petri dish is incubated (e.g., overnight) in step 2230f. After incubation, the effect of the treatment parameters is evaluated by counting CFU in step 2230g.

Pseudomonas aeruginosa [3] = assay: riboflavin/UVA laser treatment under hyperoxic conditions, CFU counting (procedure 2220); details: for average cell death percentage / CFU: UVA laser, hyperoxic
Experimental: According to an example procedure 2220 shown in FIG. 22B, a dilution factor is determined for Pseudomonas aeruginosa bacteria in step 2220a, and the Pseudomonas aeruginosa is loaded into wells in cell culture plate (e.g., a 96-well plate) in step 2220b. […] In particular, a laser beam of UVA light can be applied with a size of approximately 6.5 mm at 8 Hz. A petri dish is inoculated with the mixture from the wells in step 2220e, and the petri dish is incubated (e.g., overnight) in step 2220f. After incubation, the effect of the treatment parameters is evaluated by counting CFU in step 2220g.

[4] = system: Pseudomonas aeruginosa bacteria; assay: in vitro study of keratitis treatments, petri dish quadrants scanned with laser beam; details: dose approx. 4.5 J/cm^2, irradiance approx. 9 mW/cm^2, ambient air, approx. 70 hours after exposure
Description: FIG. 13 illustrates an example system 300 for an in vitro study of keratitis treatments. The system 300 includes an illumination system 320 that emits a laser beam that can be scanned across a petri dish containing a sample. The system 300 also includes a UV window 350 that can be selectively employed to transmit UV light in the study. Additionally, the system 300 includes a holder 360 that holds the petri dish. The holder 360 includes tubing to receive and deliver a concentration of O2 to some samples in the study. Furthermore, the system 300 includes a micrometer 370 to determine the position of the holder 360 and thus the petri dish along a vertical axis (z-axis) relative to the illumination system 320.
FIG. 14A illustrates a petri dish with an example sample 30 for the in vitro study of keratitis treatments employing the system 300. The preparation of the sample 30 involves inoculation with Pseudomonas aeruginosa bacteria (which causes keratitis) and incubation for approximately 48 hours. The resulting bacterial growth in the sample 30 is visible in FIG. 14A. The sample 30 is divided into four quadrants 30a-d to mark areas of the bacterial growth that are exposed to different conditions.
FIG. 14B illustrates the delivery of the laser beam from the illumination system 320 to selected quadrants of the sample 30. As shown, the laser beam is scanning the second quadrant 30b. […]

bacterial growth = assay: riboflavin solution without photoactivation, bacterial growth
Description: Studies by the present inventors indicate that the antimicrobial effect depends on UV dose and power.

[5] = 0.1% riboflavin, 2.5 mW/cm^2, 2.5 J/cm^2, n=3
[6] = 0.1% riboflavin, 40 mW/cm^2, 40 J/cm^2, n=3
[7] = 0.1% riboflavin, irradiance 2.5 mW/cm^2, dose 2.5 J/cm^2, replicates 1-3
[8] = 0.1% riboflavin, irradiance 40 mW/cm^2, dose 40 J/cm^2, replicates 1-3

Q: How did the “average cell death percentage” value (Pseudomonas aeruginosa [1]; [5]) turn out when `Cc1cc2nc3c(=O)[nH]c(=O)nc-3n(C[C@H](O)[C@H](O)[C@H](O)CO)c2cc1C` [riboflavin] was run?
A: The value was 29.0%.

Q: And the “average cell death percentage” value (Pseudomonas aeruginosa [1]; [6])?
A: Its value is 67.1%.

Q: What about the CFU (Pseudomonas aeruginosa [1]; [7]) of the same compound?
A: The CFU was 82 CFU and 91 CFU (2×).

Q: And the CFU (Pseudomonas aeruginosa [1]; [8])?
A: The CFU was 21 CFU and 32 CFU and 61 CFU.

Q: What about the “average cell death percentage” value (Pseudomonas aeruginosa [1]; 0.5% riboflavin, 2.5 mW/cm^2, 2.5 J/cm^2, n=3) of the same compound?
A: Its value is −55.4%.

Q: And the “average cell death percentage” value (Pseudomonas aeruginosa [1]; 0.5% riboflavin, 40 mW/cm^2, 40 J/cm^2, n=3)?
A: The value was 26.0%.

Q: And the CFU (Pseudomonas aeruginosa [1]; 0.5% riboflavin, irradiance 2.5 mW/cm^2, dose 2.5 J/cm^2, replicates 1-3)?
A: Its CFU is 86 CFU (2×) and 51 CFU.

Q: And the CFU (Pseudomonas aeruginosa [1]; 0.5% riboflavin, irradiance 40 mW/cm^2, dose 40 J/cm^2, replicates 1-3)?
A: Its CFU is 37 CFU (2×) and 35 CFU.

Q: What about the “average cell death percentage” value (Pseudomonas aeruginosa [2]; 8.6 mW/cm^2, 8.6 J/cm^2, n=3) of the same compound?
A: Its value is -9.3%.

Q: What about the “average cell death percentage” value (Pseudomonas aeruginosa [2]; 75 mW/cm^2, 75 J/cm^2, n=3) of the same compound?
A: The value was 73.6%.

Q: What about the CFU (Pseudomonas aeruginosa [2]; irradiance 8.6 mW/cm^2, dose 8.6 J/cm^2, replicates 1-3) of the same compound?
A: Its CFU is 156 CFU and 94 CFU and 124 CFU.

Q: And the CFU (Pseudomonas aeruginosa [2]; irradiance 75 mW/cm^2, dose 75 J/cm^2, replicates 1-3)?
A: Its CFU is 26 CFU and 29 CFU and 35 CFU.

Q: What about the “average cell death percentage” value (Pseudomonas aeruginosa [3]; [5]) of the same compound?
A: The value was 16.1%.

Q: And the “average cell death percentage” value (Pseudomonas aeruginosa [3]; [6])?
A: The value was 82.7%.

Q: What about the CFU (Pseudomonas aeruginosa [3]; [7]) of the same compound?
A: Its CFU is 52 CFU and 34 CFU and 12 CFU.

Q: What about the CFU (Pseudomonas aeruginosa [3]; [8]) of the same compound?
A: Its CFU is 9 CFU and 14 CFU and 4 CFU.

Q: What about the “average cell death percentage” value (Pseudomonas aeruginosa [3]; 0.2% riboflavin, 20 mW/cm^2, 20 J/cm^2, n=3) of the same compound?
A: The value was 58.9%.

Q: And the “average cell death percentage” value (Pseudomonas aeruginosa [3]; 0.2% riboflavin, 40 mW/cm^2, 20 J/cm^2, n=3)?
A: The value was 38.1%.

Q: And the CFU (Pseudomonas aeruginosa [3]; 0.2% riboflavin, irradiance 2.5 mW/cm^2, dose 2.5 J/cm^2, replicates 1-3)?
A: The CFU was 140 CFU and 101 CFU and 114 CFU.

Q: What about the CFU (Pseudomonas aeruginosa [3]; 0.2% riboflavin, irradiance 40 mW/cm^2, dose 20 J/cm^2, replicates 1-3) of the same compound?
A: The CFU was 78 CFU and 63 CFU and 77 CFU.

Q: What about the “average cell death percentage” value (Pseudomonas aeruginosa [3]; 0.22% riboflavin, 2.5 mW/cm^2, 2.5 J/cm^2, n=3) of the same compound?
A: Its value is 13.9%.

Q: What about the “average cell death percentage” value (Pseudomonas aeruginosa [3]; 0.22% riboflavin, 40 mW/cm^2, 40 J/cm^2, n=3) of the same compound?
A: Its value is 76.9%.

Q: What about the CFU (Pseudomonas aeruginosa [3]; 0.22% riboflavin, irradiance 2.5 mW/cm^2, dose 2.5 J/cm^2, replicates 1-3) of the same compound?
A: Its CFU is 218 CFU and 187 CFU and 191 CFU.

Q: And the CFU (Pseudomonas aeruginosa [3]; 0.22% riboflavin, irradiance 40 mW/cm^2, dose 40 J/cm^2, replicates 1-3)?
A: Its CFU is 56 CFU and 83 CFU and 33 CFU.

Q: What about the “effect of supplemental oxygen on bacterial death” value (Pseudomonas aeruginosa [3]; riboflavin photoactivated with a scanning laser) of the same compound?
A: Its value is “does create additional bacterial death”.

Q: What about the “bacteria in quadrants that received riboflavin and photoactivating UV light” value [4] of the same compound?
A: The value was “effectively eliminated”.

Q: And the “effect of riboflavin solution on its own on bacterial growth” value (bacterial growth)?
A: The value was “does not directly inhibit bacterial growth”.
